{"source": "patent US20200032249A1", "about": "“LABELING, ISOLATION, & ANALYSIS OF RNA FROM RARE CELL POPULATIONS” (priority 2017, published 2020)", "test_system": "MDA231 cells expressing CD/UPRT in mouse lungs", "experiment": "signal-to-noise ratio of Flura-tagging and TU-tagging in vivo, lung colonization xenograft, RT-PCR", "settings": "250 mg/kg, 12 h post injection", "procedure": "FIG. 3 a-g. Flura-tagging of mRNA in vivo. FIG. 3a—Schematic diagram of lung colonization xenograft assay used for evaluation of Flura-tagging/Flura-seq. Athymic mice were injected through the tail vein with 50,000 MDA231 cells expressing CD/UPRT and GFP-luciferase. Upon the development of detectable bioluminescent lung metastases (4 weeks), mice were treated with doxycycline to induce CD/UPRT expression and injected with 5-FC. Lungs were harvested, and Flura-tagged mRNAs were immunopurified. FIG. 3b—Comparison of signal-to-noise ratio of Flura-tagging and TU-tagging in vivo. Mice were injected with either 5-FC or TU, the Flura-tagged or TU-tagged mRNAs were purified 12 h post injection, and the relative fold enrichment of representative human housekeeping genes relative to representative murine housekeeping genes (mHPRT1, mLDH1, mPGK1 and mGAPDH), normalized to their corresponding unpurified inputs, were measured by RT-PCR (n=5, ±S.E.). FIG. 3c—Quantification of the number of human cells in the mouse lungs used for Flura-tagging. Half of the mouse lungs used for Flura-tagging in FIG. 3b was dissociated into single cells, and the number of RFP+ cells was quantified using flow cytometry. The total number of MDA231 cells per lung was estimated based on an assumption of 1.5×10^8 cells per mouse lung (20) (n=5). […] RNA reads were aligned to a hybrid genome containing the human and mouse genomes. […]", "data": [{"smiles": "Nc1nc(=O)[nH]cc1F", "note": "[5-FC, 5-fluorocytosine]", "values": [{"measurement": "enrichment of human mRNAs compared to mouse mRNAs", "value": "over 1000 fold"}]}]}
